The record followed here is patent US12391701B2, “Chromene-based compounds, methods and uses thereof” (University of Minho, priority 2019, dated 2025).

Structures are written as SMILES.

Series [1] concerns 786-O cells. The series is described as follows: BrdU proliferation assay, 786-O. The class given is cell-based. As to conditions: 48 hours; IC50 and ½IC50. Here is the method: In an embodiment, the effect of preferred chromene-based compounds on cell proliferation was evaluated. […] Results are presented as mean±SD at least three independent experiments. *p<0.05, **p<0.01, ***p<0.0005, ****p<0.0001 compared to control (0.5% DMSO). The significance of the difference between different groups was determined with Student t test. […] Exceptions are observed for compounds MC409, MC410 and MC368.
In an embodiment, proliferation assay was performed. 786-O cells were plated in 96-well plates at a density of 7000 cells/[…], and allowed to incubate overnight at 37° C. in a 5% CO2 humidified atmosphere. […] After incubation, cells were labelled by addition of 10 μl/well BrdU labelling solution (final concentration: 40 μM BrdU). The cells were then re-incubated for 16 h to allow BrdU to incorporate into the proliferating cell DNA, replacing thymidine. […] The immune complexes were detected by the addition of substrate solution (100 μl/well) and the plate was incubated at room temperature until color development was satisfactory for photometric detection (5-10 min). […] The reaction product was quantified by measuring absorbance at 450 nm (reference wavelength: 690 nm) in microplate reader (Tecan Infinite M200). […] The results of at least three independent experiments (in quadruplicate) were evaluated using GraphPad Prism 5 software.

Series [2] relates to 786-O cells. The series can be described thus: Annexin V/PI flow cytometry, 786-O. The class given is cell-based. The following applies: IC50 concentration; 24 h. The source says: (§1) In an embodiment, to understand the mechanisms leading to cell death, cells were studied for the induction of apoptosis by flow cytometry. […] Externalization of phosphatidylserine occurs during the early apoptotic events. While annexin V binds to phosphatidylserine, PI stains only cells that have lost their membrane integrity, an experimental procedure which allows the discrimination between viable cells, early apoptotic cells, late apoptotic/necrotic cells or necrotic cells.
(§2) In an embodiment, MCF-7, Hs578t and 786-O cells were seeded in 6-well culture plates and allowed to adhere over 18-20 hours in a complete DMEM (for MCF-7 and Hs578t cells) and complete RPMI (for 786-O cells) medium to detect apoptosis via flow cytometry analysis. […] Triplicates were performed in each experiment. Floating and adherent cells were collected and combined by centrifugation. Elimination of the supernatant was followed by addition of 1 mL of Binding Buffer. 8 μL FITC annexin V (556419, BD Pharmingen) and 30 μl of PI (50 μg/mL, P1304MP, Invitrogen) were added to the cell pellet. Samples were incubated in the dark for 15 min at room temperature. A further 200 μL of Binding Buffer was added to each sample. PI signal was measured using FACS LSRII flow cytometer (BD Biosciences®) with 488 nm excitation laser. […] The percentage of cells in each phase was analysed using the FlowJo 7.6 (Tree Star®) software. […]
In general terms: A flow cytometer gives signals particle by particle.

Another series has as its system MCF-7 cells. The series can be described thus: Annexin V/PI flow cytometry, MCF-7. The class given is cell-based, human. The following applies: IC50 concentration; 24 h.
Excerpt: as §1, §2

Series [3] deals with CAM (chicken chorioallantoic membrane) blood vessels. The series is described as follows: CAM assay, angiogenesis. The class given is in vivo. As to conditions: 2× the IC50 value; after 4 days of treatment. The method, then:
In an embodiment, the in vivo capacity of the compounds to inhibit angiogenesis was analysed using the CAM model. To assess the effect on angiogenesis, sterilized 5-mm diameter filter disks were impregnated in culture medium with fixed concentration (2× the IC50 value) of the chromenes MC408 and MC421 or 0.5% DMSO (control group) and were placed onto the vascular area of CAM.
In an embodiment, CAM assay was performed. Fertilized chicken eggs were incubated at 37° C. and at day 3 of development, a window was opened into the eggshell after puncturing the air chamber. The window was sealed with BTK tape and returned to the incubator. On day 9 of development, Hs578t cells (2×10^6 cells) or 786-O cells (3.5×10^6 cells) with Matrigel (10 μL) were placed on CAM, allowing tumor formation and the eggs were tapped and returned to the incubator. At day 14 of development, the tumors were photographed. The treated groups received 20 μL of 2×IC50 concentration of MC408 or MC421 in complete DMEM (for Hs578t cells) or complete RPMI (for 786-O cells) media and the controls received 20 μL of 0.5% DMSO in complete DMEM or RPMI; these were added over the formed tumor. After 72 hours of treatment (day 17 of development), the tumors were photographed again in ovo. Sacrifice of chicken embryos was performed at −80° C. for 10 minutes and the CAM alone was fixed with paraformaldehyde at 4% before being photographed again ex ovo.

Another series deals with C57BI/6 mice. The series is described as follows: Toxicity in C57BI/6 mice, 2nd trial. As to conditions: 3 mg/Kg i.p. daily for 7 days. The class given is in vivo. The method, then: In an embodiment, the effects of compound treatment on C57BI/6 mice—2nd trial was analysed. […] FIG. 16A is a schematic representation of the experiment timeline. 3-month old female and male animals were used (n=6/group/gender) and injected either with MC408 3 mg/Kg or vehicle (saline, Tween80 and methylcellulose) (i.p.) daily for 7 days. In this trial the number of animals per group was increased and the experiment was conceived to collect blood before and after the treatment. […] Data is presented as mean±SE.

As for `COc1cccc2c1Oc1nc(-c3cc(F)cc(F)c3O)[nH]c1C2` [MC410, 2,4-difluoro-6-(5-methoxy-3,9-dihydrochromeno[2,3-d]imidazol-2-yl)phenol], the “effect on cell proliferation (BrdU incorporation)” value in the series with 786-O cells [1] was “Exceptions”.
Regarding `COc1cccc2c1Oc1nc(-c3ccc(F)cc3)[nH]c1C2` [MC409, 2-(4-fluorophenyl)-5-methoxy-3,9-dihydrochromeno[2,3-d]imidazoles], the “effect on cell proliferation (BrdU incorporation)” value in the series with 786-O cells [1] is reported as “Exceptions”.
`COc1cccc2c1Oc1nc(-c3ccc(Br)cc3)[nH]c1C2C1c2cccc(OC)c2Oc2nc(-c3ccc(Br)cc3)[nH]c21` (centres unmarked) [MC421, 2,2′-bis(4-bromophenyl)-5,5′-dimethoxy-1,1,9,9′-tetrahydro-9,9′-bichromeno[2,3-]imidazoles]: the “induction of cell death by apoptosis (annexin V/PI)” value (from here on “induction of cell death”) with 786-O cells [2] is “inducing cell death by apoptosis (early apoptosis)”. The “induction of cell death” value with MCF-7 cells is on record as “inducing cell death by apoptosis (early apoptosis)”. In series [3], the “formation of novel blood vessels” value is recorded as “decreased” and the pre-existing blood vessels entry is “disruption”.
For `COc1cccc2c1Oc1nc(-c3ccc(Br)cc3)[nH]c1C2` [MC408, 2-(4-bromophenyl)-5-methoxy-3,9-dihydrochromeno[2,3-d]imidazoles], the body weight entry in the series on C57BI/6 mice is listed as “no differences were found”. In addition, in the series with 786-O cells [2], the “induction of cell death” value is listed as “inducing cell death by apoptosis (early apoptosis)”. Further, the “induction of cell death” value in the series on MCF-7 cells is recorded as “inducing cell death by apoptosis (early apoptosis)”. Moreover, in series [3], the “formation of novel blood vessels” value was “decreased” and the pre-existing blood vessels entry is on record as “disruption”.
